# According to patent publication US9320271B2, “Microbial composition” (Rohm and Haas Company, priority 2011, dated 2016):
# Several values for one entry are separate records, joined by “and”; a condition that tells them apart may be missing. Identical values can stand only once.
# Columns and labels:
# [1] = system: Escherichia coli (E. coli—ATCC #10536); assay: Automated assessment of efficacy in surfactant base (2.85% sodium cocoyl glycinate and 1.85% sodium lauroamphoacetate, pH 10.0), 15 seconds exposure; type: cell-based; conditions: for No. of replicates showing growth (out of 4) / Δ OD 450 nm = OD450 (time = 16 hours) − OD450 (time zero), Mean / Δ OD 590 nm OD590 (time = 16 hours) − OD590 (time zero), Mean: alone, model surfactant solution
# [2] = system: Escherichia coli (E. coli—ATCC #10536); assay: Synergy test: high resolution MBC microtiter plate assay, phosphate buffer containing 35% dipropylene glycol, 15 seconds contact; type: cell-based; conditions: E. coli 10536; for MBC of the component acting alone (QA / QB; Qa or Qb where the other component is 0): complete kill in 15 seconds
compound,measurement,setting,value
"Cc1ccc(C(C)C)c(O)c1O [3-isopropyl-6-methylbenzene-1,2-diol]",No. of replicates showing growth (out of 4),[1]; 0.175% w/v,4
same,"Δ OD 450 nm = OD450 (time = 16 hours) − OD450 (time zero), Mean",[1]; 0.175% w/v,−0.51
same,"Δ OD 590 nm OD590 (time = 16 hours) − OD590 (time zero), Mean",[1]; 0.175% w/v,0.53
same,No. of replicates showing growth (out of 4),[1]; 0.2% w/v,4
same,"Δ OD 450 nm = OD450 (time = 16 hours) − OD450 (time zero), Mean",[1]; 0.2% w/v,−0.53
same,"Δ OD 590 nm OD590 (time = 16 hours) − OD590 (time zero), Mean",[1]; 0.2% w/v,0.53
same,No. of replicates showing growth (out of 4),[1]; […] w/v,4
same,"Δ OD 450 nm = OD450 (time = 16 hours) − OD450 (time zero), Mean",[1]; […] w/v,−0.50
same,"Δ OD 590 nm OD590 (time = 16 hours) − OD590 (time zero), Mean",[1]; […] w/v,0.56
same,MBC (minimum biocidal concentration),"[1]; in 2.85% sodium cocoyl glycinate + 1.85% sodium lauroamphoacetate solution at pH 10, E. coli",>0.2 % w/v
same,SI (Synergy Index),"[2]; at Qa and Qb, less than one = synergy",1.00
same,MBC of the component acting alone (QA / QB; Qa or Qb where the other component is 0),[2],1.0 weight % and 0.8 weight %
same,MBC of the component acting alone (QA / QB; Qa or Qb where the other component is 0),"[2]; listed as 3-isopronyl-6-methylbenzene-1,2-diol",0.8 weight %
